Results from patent US9708331B2, “Metabotrophic glutamate receptor 5 modulators and methods of use thereof” (SUNOVION PHARMACEUTICALS INC., priority 2011, dated 2017).

Tests used:
[1] = molecular target: T1, mGluR5 (Homo sapiens, UniProt P41594); test: mGluR5 fold shift at a fixed compound concentration; assay type: cell-based
[2] = molecular target: T1, mGluR5; test: mGluR5 PAM EC50 (positive allosteric modulator potency); assay type: cell-based

T1 sequence (P41594 21-1212): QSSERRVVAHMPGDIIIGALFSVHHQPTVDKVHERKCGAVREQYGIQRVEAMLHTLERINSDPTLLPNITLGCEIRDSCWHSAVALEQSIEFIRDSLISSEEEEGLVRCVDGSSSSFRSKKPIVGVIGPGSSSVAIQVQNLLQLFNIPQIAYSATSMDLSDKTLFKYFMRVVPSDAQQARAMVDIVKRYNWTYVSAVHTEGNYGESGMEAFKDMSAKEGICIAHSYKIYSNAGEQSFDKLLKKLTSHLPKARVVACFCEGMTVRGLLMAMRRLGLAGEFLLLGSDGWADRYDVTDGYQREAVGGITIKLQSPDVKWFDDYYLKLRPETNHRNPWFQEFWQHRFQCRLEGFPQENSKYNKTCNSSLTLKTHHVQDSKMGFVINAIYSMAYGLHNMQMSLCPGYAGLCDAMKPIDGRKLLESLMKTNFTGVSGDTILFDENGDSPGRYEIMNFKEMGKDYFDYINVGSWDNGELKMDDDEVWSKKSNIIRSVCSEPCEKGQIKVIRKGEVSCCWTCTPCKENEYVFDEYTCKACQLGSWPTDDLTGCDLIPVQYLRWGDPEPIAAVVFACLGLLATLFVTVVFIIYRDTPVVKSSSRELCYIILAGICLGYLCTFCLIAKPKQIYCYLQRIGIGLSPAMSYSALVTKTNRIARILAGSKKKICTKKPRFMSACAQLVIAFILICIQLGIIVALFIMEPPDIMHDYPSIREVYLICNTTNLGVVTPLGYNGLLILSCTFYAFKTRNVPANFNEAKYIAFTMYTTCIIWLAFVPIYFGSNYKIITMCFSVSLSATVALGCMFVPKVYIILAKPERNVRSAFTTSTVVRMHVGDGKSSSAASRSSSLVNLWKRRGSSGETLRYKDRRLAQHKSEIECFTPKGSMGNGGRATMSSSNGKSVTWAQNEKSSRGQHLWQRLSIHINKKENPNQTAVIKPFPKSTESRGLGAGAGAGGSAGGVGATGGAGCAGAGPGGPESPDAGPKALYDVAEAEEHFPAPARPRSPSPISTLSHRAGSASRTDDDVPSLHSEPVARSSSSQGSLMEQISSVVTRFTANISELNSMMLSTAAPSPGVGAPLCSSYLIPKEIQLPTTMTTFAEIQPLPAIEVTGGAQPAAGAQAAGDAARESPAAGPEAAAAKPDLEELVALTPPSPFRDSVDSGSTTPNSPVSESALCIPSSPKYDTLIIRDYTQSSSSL

| SMILES | Fold shift at 10 μM [1] | EC50 [2] | Fold shift at 1 μM [1] |
| --- | --- | --- | --- |
| CC1(C)CC(F)c2nc3cc(C#Cc4ccccn4)ccc3c(=O)n2C1 (single isomer, unassigned) [Example 2.12a] | +++ (+++>3) | < 10 nM |  |
| COC(C)(C)C1Cc2nc3cc(C#Cc4ccccn4)ccc3c(=O)n2C1 (centres unmarked) [Example 1.4, 2-(2-methoxypropan-2-yl)-6-(pyridin-2-ylethynyl)-2,3-dihydropyrrolo[2,1-b]quinazolin-9(1H)-one] |  | 10 to 30 nM | +++ (+++>3) |
| CC1(C)CCc2nc3cc(C#Cc4ccccc4)ccc3c(=O)n2C1 [Example 2.37, 8,8-dimethyl-3-(phenylethynyl)-8,9-dihydro-6H-pyrido[2,1-b]quinazolin-11(7H)-one] |  | < 10 nM | ++ (++ is between 2.0 and 2.9) |
| COC1(C)CCc2nc3cc(C#Cc4ccccn4)ccc3c(=O)n2C1 (single isomer, unassigned) [Example 2.8b] |  | 30 to 100 nM | +++ (+++>3) |
| CC1(C)CCc2nc3cc(C#Cc4cccc(C#N)c4)ccc3c(=O)n2C1 [Example 2.45, 3-((8,8-dimethyl-11-oxo-7,8,9,11-tetrahydro-6H-pyrido[2,1-b]quinazolin-3-yl)ethynyl)benzonitrile] |  | 10 to 30 nM | ++ (++ is between 2.0 and 2.9) |
| Cc1cccc(C#Cc2ccc3c(=O)n4c(nc3c2)CCC(C)(C)C4)c1 [Example 2.44, 8,8-dimethyl-3-(m-tolylethynyl)-8,9-dihydro-6H-pyrido[2,1-b]quinazolin-11(7H)-one] |  | < 10 nM | +++ (+++>3) |
| CC1(CF)CCc2nc3cc(C#Cc4ccccn4)ccc3c(=O)n2C1 (centres unmarked) [Example 2.96, 8-(fluoromethyl)-8-methyl-3-(pyridin-2-ylethynyl)-8,9-dihydro-6H-pyrido[2,1-b]quinazolin-11(7H)-one] |  | < 10 nM | +++ (+++>3) |
| CC1(C)COc2nc3cc(C#Cc4ccccn4)ccc3c(=O)n2C1 [Example 2.29, 3,3-dimethyl-9-(pyridin-2-ylethynyl)-3,4-dihydro-[1,3]oxazino[2,3-b]quinazolin-6(2H)-one] |  | 10 to 30 nM | +++ (+++>3) |
| CC12Cn3c(nc4cc(C#Cc5ccccn5)ccc4c3=O)CC1C2(F)F (centres unmarked) [Example 2.69, 1,1-difluoro-10a-methyl-5-(pyridin-2-ylethynyl)-1a,2,10,10a-tetrahydrocyclopropa[4,5]pyrido [2,1-b]quinazolin-8(1H)-one] |  | < 10 nM | +++ (+++>3) |
| COC1CCc2nc3cc(C#Cc4ccccn4)ccc3c(=O)n2CC1 (single isomer, unassigned) [Example 3.11b] |  | 10 to 30 nM | ++ (++ is between 2.0 and 2.9) |
| COc1cccc(C#Cc2ccc3c(=O)n4c(nc3c2)CCC(C)(C)C4)n1 [Example 2.101, 3-((6-methoxypyridin-2-yl)ethynyl)-8,8-dimethyl-8,9-dihydro-6H-pyrido[2,1-b]quinazolin-11(7H)-one] |  | 30 to 100 nM | ++ (++ is between 2.0 and 2.9) |
| CC1(C)Cc2nc3cc(C#Cc4ccccn4)ccc3c(=O)n2O1 [Example 1.15, 2,2-dimethyl-6-(pyridin-2-ylethynyl)-2H-isoxazolo[3,2-b]quinazolin-9(3H)-one] |  | 30 to 100 nM | + (+ is between 1.5 and 1.9) |
| O=c1c2ccc(C#Cc3ccccn3)cc2nc2n1CC1(CCC1)C2 [Example 1.7, 6′-(pyridin-2-ylethynyl)-1′H-spiro[cyclobutane-1,2′-pyrrolo[2,1-b]quinazolin]-9′(3′H)-one] |  | 10 to 30 nM | +++ (+++>3) |
| CCC1(C)Cc2nc3cc(C#Cc4ccccn4)ccc3c(=O)n2C1 (centres unmarked) [Example 1.10, 2-ethyl-2-methyl-6-(pyridin-2-ylethynyl)-2,3-dihydropyrrolo[2,1-b]quinazolin-9(1H)-one] |  | 10 to 30 nM | +++ (+++>3) |
| CC1(C)CCc2nc3cc(C#Cc4ccc(Cl)cn4)ccc3c(=O)n2C1 [Example 2.42, 3-((5-chloropyridin-2-yl)ethynyl)-8,8-dimethyl-8,9-dihydro-6H-pyrido[2,1-b]quinazolin-11(7H)-one] |  | < 10 nM | +++ (+++>3) |
| CC1Cc2nc3cc(C#Cc4ccccn4)ccc3c(=O)n2CCC1(F)F (single isomer, unassigned) [Example 3.30d] | + (+ is between 1.5 and 1.9) |  |  |
| CC1(C)CCn2c(nc3cc(C(=O)Nc4ccccn4)ccc3c2=O)C1 [Example 4.11, 7,7-dimethyl-11-oxo-N-(pyridin-2-yl)-7,8,9,11-tetrahydro-6H-pyrido[2,1-b]quinazoline-3-carboxamide] |  | 100 to 300 nM | + (+ is between 1.5 and 1.9) |
| COc1ccnc(C#Cc2ccc3c(=O)n4c(nc3c2)CCC(C)(C)C4)c1 [Example 2.102, 3-((4-methoxypyridin-2-yl)ethynyl)-8,8-dimethyl-8,9-dihydro-6H-pyrido[2,1-b]quinazolin-11(7H)-one] |  | 30 to 100 nM | + (+ is between 1.5 and 1.9) |
| O=c1c2ccc(C#Cc3ccccn3)cc2nc2n1CC1(CCC2)CC1(F)F (centres unmarked) [Example 3.40, 2′,2′-difluoro-3-(pyridin-2-ylethynyl)-7,8-dihydro-6H-spiro[azepino[2,1-b]quinazoline-9,1′-cyclopropan]-12(10H)-one] |  | 10 to 30 nM | +++ (+++>3) |
| CC1(F)CCc2nc3cc(C#Cc4ccccn4)cnc3c(=O)n2CC1 (single isomer, unassigned) [Example 3.10b] |  | 30 to 100 nM | +++ (+++>3) |

| SMILES | Fold shift at 10 μM [1] | EC50 [2] | Fold shift at 1 μM [1] |
| --- | --- | --- | --- |
| O=c1c2ccc(C#Cc3ccccn3)cc2nc2n1CC1(CC2)CC1(F)F (centres unmarked) [Example 2.68, 2,2-difluoro-3′-(pyridin-2-ylethynyl)-6′,7′-dihydrospiro[cyclopropane-1,8′-pyrido[2,1-b]quinazolin]-11′(9′H)-one] |  | < 10 nM | +++ (+++>3) |
| COCC1(C)CCc2nc3cc(C#Cc4ccccn4)ccc3c(=O)n2C1 (centres unmarked) [Example 2.97, 8-(methoxymethyl)-8-methyl-3-(pyridin-2-ylethynyl)-8,9-dihydro-6H-pyrido[2,1-b]quinazolin-11(7H)-one] |  | 10 to 30 nM | +++ (+++>3) |
| O=c1c2ccc(C#Cc3ccccn3)cc2nc2n1CCC1CC21 (single isomer, unassigned) [Example 2.10a] |  | 30 to 100 nM | ++ (++ is between 2.0 and 2.9) |
| CC1(C)CCc2nc3c(F)c(C#Cc4ccccn4)ccc3c(=O)n2C1 [Example 2.30b, 4-fluoro-8,8-dimethyl-3-(pyridin-2-ylethynyl)-8,9-dihydro-6H-pyrido[2,1-b]quinazolin-11(7H)-one] |  | 10 to 30 nM | +++ (+++>3) |
| O=c1c2ccc(C#Cc3ccccn3)cc2nc2n1CC(C(F)(F)F)C2 (single isomer, unassigned) [Example 1.8b] |  | 30 to 100 nM | + (+ is between 1.5 and 1.9) |
| CC1Cc2nc3cc(C#Cc4ccccn4)ccc3c(=O)n2CCC1(F)F (single isomer, unassigned) [Example 3.30c] | +++ (+++>3) | 10 to 30 nM |  |
| CC1(C)CCc2nc3cc(C#Cc4ccc(F)cn4)ccc3c(=O)n2C1 [Example 2.43, 3-((5-fluoropyridin-2-yl)ethynyl)-8,8-dimethyl-8,9-dihydro-6H-pyrido[2,1-b]quinazolin-11(7H)-one] |  | < 10 nM | ++ (++ is between 2.0 and 2.9) |
| O=c1c2ccc(C#Cc3ccccn3)cc2nc2n1C1CCC2C1 (single isomer, unassigned) [Example 2.9b] |  |  | ++ (++ is between 2.0 and 2.9) |
| CCC1(C)Cc2nc3cc(C#Cc4ccccn4)cnc3c(=O)n2C1 (centres unmarked) [Example 1.19, 7-ethyl-7-methyl-3-(pyridin-2-ylethynyl)-7,8-dihydropyrido[3,2-d]pyrrolo[1,2-a]pyrimidin-10(6H)-one] |  | 30 to 100 nM | ++ (++ is between 2.0 and 2.9) |
| CC1(C)CC(F)c2nc3cc(C#Cc4ccccn4)ccc3c(=O)n2C1 (single isomer, unassigned) [Example 2.12b] | + (+ is between 1.5 and 1.9) |  |  |
| O=c1c2ccc(C#Cc3ccccn3)cc2nc2n1CC1(CC2)COC1 [Example 2.58, 3′-(pyridin-2-ylethynyl)-6′,7′-dihydrospiro[oxetane-3,8′-pyrido[2,1-b]quinazolin]-11′(9′H)-one] |  | 10 to 30 nM | +++ (+++>3) |
| CC1CCc2cc3cc(C#Cc4ccccn4)ccc3c(=O)n2CC1 (single isomer, unassigned) [Example 3.20a] | +++ (+++>3) | < 10 nM |  |
| COC1(C)CCc2nc3cc(C#Cc4ccccn4)ccc3c(=O)n2C1 (single isomer, unassigned) [Example 2.8a] | ++ (++ is between 2.0 and 2.9) | 100 to 300 nM |  |
| O=c1c2ccc(C#Cc3ccccn3)cc2nc2n1CCC(F)(F)CC2 [Example 3.15, 8,8-difluoro-3-(pyridin-2-ylethynyl)-7,8,9,10-tetrahydroazepino[2,1-b]quinazolin-12(6H)-one] | +++ (+++>3) | 10 to 30 nM |  |
| CC1CCn2c(nc3cc(C#Cc4ccccn4)ccc3c2=O)C1 (single isomer, unassigned) [Example 2.1b] |  |  | ++ (++ is between 2.0 and 2.9) |
| COC1(C)CCc2nc3cc(C#Cc4ccccn4)ccc3c(=O)n2CC1 (single isomer, unassigned) [Example 3.4b] | ++ (++ is between 2.0 and 2.9) |  |  |
| O=c1c2ccc(C#Cc3ccccn3)cc2nc2n1CC1CC(F)(F)CN1CC2 (centres unmarked) [Example 3.33a, 2,2-difluoro-9-(pyridin-2-ylethynyl)-2,3,5,6,14,14a-hexahydropyrrolo[2′,1′:3,4][1,4] diazepino[7,1-b]quinazolin-12(1H)-one] |  | 30 to 100 nM |  |
| CC1Cn2c(nc3cc(C#Cc4ccccn4)ccc3c2=O)CO1 (single isomer, unassigned) [Example 2.4b] |  | < 10 nM |  |
| CC1CCn2c(nc3cc(C#Cc4ccccn4)ccc3c2=O)C1 (single isomer, unassigned) [Example 2.1a] |  | 10 to 30 nM |  |
| CC1CCc2nc3cc(C#Cc4ccccn4)ccc3c(=O)n2C1 (single isomer, unassigned) [Example 2.2b] |  | 10 to 30 nM |  |
